Assay results: publication PMC8536830 (Current Biology, 2021)

Experiments:
Assay type in all cases: cell-based, C. elegans
LGC-54 = LGC-54 (Caenorhabditis elegans, UniProt O17041); experiment: Two-electrode voltage clamp, agonist-evoked currents in Xenopus oocytes expressing LGC-54
Text: (§1) We aimed to deorphanize C. elegans LGICs without known ligands, focusing on 5 genes in the putative monoamine-gated group: lgc-50; lgc-51; lgc-52; lgc-54; and lgc-56 (previously named ggr-3). Using heterologous overexpression in Xenopus oocytes and two-electrode voltage clamp recordings, we measured channel activity evoked by application of 11 monoamines and other neurotransmitters.
(§2) Defolliculated Xenopus laevis oocytes were obtained from EcoCyte Bioscience (Dortmund, Germany) and maintained in ND96 (in mM: 96 NaCl, 1 MgCl2, 5 HEPES, 1.8 CaCl2, 2 KCl) solution at 16°C for 3-5 days.
(§3) 5'-capped cRNA was synthesized in vitro using the T3 mMessage mMachine transcription kit according to manufacturer’s protocol (Thermo Fischer Scientific, CA, USA). RNA was then purified using the GeneJET RNA purification kit (Thermo Fischer Scientific, CA, USA) prior to cRNA injection. Defolliculated Xenopus oocytes were placed individually into 96 well plates and injected with 50nL of 500ng/μL RNA using the Roboinject system (Multi Channel Systems GmbH, Reutlingen, Germany). When two constructs were injected the total RNA concentration remained 500ng/μL, with a 1:1 ratio of the components. Injected oocytes were incubated at 16°C in ND96 until the day of recording, typically between 3-5 days post injection.
Two-electrode voltage clamp recordings were carried out using the Robocyte2 recording system or a manual TEVC set up, using an OC-725D amplifier (Multi Channel Systems, Reutlingen, Germany) and paired with a custom-made recording chamber and agar bridges from reference and bath electrodes. Glass electrodes were pulled on a P-1000 Micropipette Puller (Sutter, Ca, USA) with a resistance ranging from 0.7-2 MΩ, pipettes, containing AgCl wires, were backfilled with a 3 M KCl solution for manual recordings and 1.5M KCl and 1 M acetic acid for Robocyte2 recordings. Oocytes were clamped at −60mV unless stated otherwise. Continuous recordings were taken during application of agonists and antagonists at 500 Hz. Data was recorded using WinWCP or RoboCyte2 control software, manual data was filtered at 10 Hz.
Dose response curves were calculated from the peak current during a 10 s agonist stimulation in ND96 solution, with a 60 s ND96 wash in between doses. Data was gathered over at least two occasions, using different batches of oocytes. Normalized dose response data was fitted to a nonlinear curve using a four parameters variable slope and the EC50 and Hill slope was calculated. All further recordings were carried out with the agonist at its EC50 concentration unless stated otherwise. Ion selectivity was determined using a voltage ramp protocol of 20mV/s ranging from −80mV to +60mV in the presence or absence of the primary agonist in three different solutions: ND96, NMDG (Na^+ free) and Na Gluconate (low Cl^-) solutions. Normalized ramp curves were fitted to a linear regression line and the x intercept was compared between solutions to calculate an average Erev from 4-5 oocytes. Antagonist dose response curves were calculated from the peak current during a 10 s agonist + antagonist stimulation in ND96 solution, with the agonist concentration remaining constant. Repeated agonist stimulus protocols were carried out by measuring the peak current during a 10 s agonist stimulation at three wash intervals, 10 s, 30 s and 60 s. Kinetic measurements were calculated from a 60 s agonist perfusion. Python scripts for TEVC analysis can be found at on GitHub at hiris25/TEVC-analysis-scripts and on Zenodo https://doi.org/10.5281/zenodo.5095181.
Dose response and antagonist response curves were generated using custom-built python scripts (key resources table), which combined data from multiple recordings and normalized data by calculating I/Imax for each oocyte.

LGC-50 = biological target: T1, LGC-50 (Caenorhabditis elegans, UniProt P41849); experiment: Two-electrode voltage clamp, agonist-evoked currents in Xenopus oocytes expressing LGC-50
T1 construct: lgc-50 ORF F […]; expressed in transfected cells; host or cells: Xenopus laevis oocytes injected with cRNA (plasmid pJML002, KSM: lgc-50 cDNA)
T1 sequence (P41849 20-491): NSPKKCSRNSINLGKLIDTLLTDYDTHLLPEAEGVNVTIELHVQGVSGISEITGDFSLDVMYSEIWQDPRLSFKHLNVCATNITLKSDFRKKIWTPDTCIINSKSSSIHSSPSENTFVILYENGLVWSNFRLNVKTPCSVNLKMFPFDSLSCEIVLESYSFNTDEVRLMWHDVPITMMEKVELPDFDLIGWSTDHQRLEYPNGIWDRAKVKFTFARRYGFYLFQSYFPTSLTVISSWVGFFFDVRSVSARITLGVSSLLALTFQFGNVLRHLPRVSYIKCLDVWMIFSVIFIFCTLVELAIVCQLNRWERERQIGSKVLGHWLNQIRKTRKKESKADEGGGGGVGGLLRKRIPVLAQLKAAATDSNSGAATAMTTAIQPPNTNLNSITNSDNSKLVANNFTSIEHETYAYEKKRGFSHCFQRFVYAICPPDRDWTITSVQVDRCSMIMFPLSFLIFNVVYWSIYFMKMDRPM
Text: as §1, §2
5'-capped cRNA was synthesized in vitro using the T3 mMessage mMachine transcription kit according to manufacturer’s protocol (Thermo Fischer Scientific, CA, USA). RNA was then purified using the GeneJET RNA purification kit (Thermo Fischer Scientific, CA, USA) prior to cRNA injection. […]
(§4) Two-electrode voltage clamp recordings were carried out using the Robocyte2 recording system or a manual TEVC set up, using an OC-725D amplifier (Multi Channel Systems, Reutlingen, Germany) and paired with a custom-made recording chamber and agar bridges from reference and bath electrodes. […] Data was recorded using WinWCP or RoboCyte2 control software, manual data was filtered at 10 Hz.
Dose response curves were calculated from the peak current during a 10 s agonist stimulation in ND96 solution, with a 60 s ND96 wash in between doses. […] Normalized dose response data was fitted to a nonlinear curve using a four parameters variable slope and the EC50 and Hill slope was calculated. […] Ion selectivity was determined using a voltage ramp protocol of 20mV/s ranging from −80mV to +60mV in the presence or absence of the primary agonist in three different solutions: ND96, NMDG (Na^+ free) and Na Gluconate (low Cl^-) solutions. […] Antagonist dose response curves were calculated from the peak current during a 10 s agonist + antagonist stimulation in ND96 solution, with the agonist concentration remaining constant. […] Kinetic measurements were calculated from a 60 s agonist perfusion. […]

LGC-50:MOD-1(363-397) = biological target: T2, LGC-50:MOD-1(363-397) (Caenorhabditis elegans, UniProt P41849); experiment: Two-electrode voltage clamp, 5-HT evoked dose response, LGC-50:MOD-1(363-397) chimera; conditions: Xenopus oocytes, TEVC
T2 sequence (P41849 with tags, fused parts or gaps): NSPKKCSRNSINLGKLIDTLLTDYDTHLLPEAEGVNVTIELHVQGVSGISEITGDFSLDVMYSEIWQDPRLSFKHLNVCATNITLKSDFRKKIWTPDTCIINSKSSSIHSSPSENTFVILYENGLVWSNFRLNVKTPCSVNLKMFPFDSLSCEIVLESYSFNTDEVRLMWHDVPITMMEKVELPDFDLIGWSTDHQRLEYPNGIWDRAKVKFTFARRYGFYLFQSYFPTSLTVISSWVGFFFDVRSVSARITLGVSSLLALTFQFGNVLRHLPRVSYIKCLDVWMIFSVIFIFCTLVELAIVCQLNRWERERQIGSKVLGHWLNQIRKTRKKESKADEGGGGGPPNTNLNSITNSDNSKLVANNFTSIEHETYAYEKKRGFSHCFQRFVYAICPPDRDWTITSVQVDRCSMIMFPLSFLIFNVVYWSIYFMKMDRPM
T2 sequence (Q9GQ00 363-397 partner): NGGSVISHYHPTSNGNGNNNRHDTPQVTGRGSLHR
Procedure: as §2
as §3, with “When two constructs were injected the total RNA concentration remained 500ng/μL, with a 1:1 ratio of the components. Injected oocytes were incubated at 16°C in ND96 until the day of recording, typically between 3-5 days post injection.” left out
as §4
Dose response curves were calculated from the peak current during a 10 s agonist stimulation in ND96 solution, with a 60 s ND96 wash in between doses. […] Normalized dose response data was fitted to a nonlinear curve using a four parameters variable slope and the EC50 and Hill slope was calculated. […]

[1] = ligands screened at 100 μM, oocytes clamped at −60 mV

Chain of LGC-54 (O17041 entry or part of it): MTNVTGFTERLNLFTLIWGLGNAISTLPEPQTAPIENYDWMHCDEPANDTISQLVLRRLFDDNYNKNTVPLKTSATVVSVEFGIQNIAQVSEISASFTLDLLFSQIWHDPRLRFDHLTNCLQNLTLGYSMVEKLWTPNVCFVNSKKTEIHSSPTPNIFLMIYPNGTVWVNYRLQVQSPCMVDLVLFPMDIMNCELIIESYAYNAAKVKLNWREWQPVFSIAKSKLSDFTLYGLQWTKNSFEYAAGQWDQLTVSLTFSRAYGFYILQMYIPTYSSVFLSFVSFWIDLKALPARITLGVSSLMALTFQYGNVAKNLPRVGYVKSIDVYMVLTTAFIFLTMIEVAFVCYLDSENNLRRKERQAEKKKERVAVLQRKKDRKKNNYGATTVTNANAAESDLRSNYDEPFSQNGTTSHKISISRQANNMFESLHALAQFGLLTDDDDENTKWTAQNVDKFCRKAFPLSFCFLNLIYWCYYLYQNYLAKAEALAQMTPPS

NCCc1c[nH]c2ccc(O)cc12 [5-HT, serotonin]
EC50 (LGC-54; Xenopus oocytes, TEVC, current normalized to Imax, Hill equation with variable slope, read-out: EC50, agonist-evoked dose response, LGC-54): 94000 nM
Channel activation in ligand screen, LGC-54 (LGC-54; [1]): responded to 5-HT at high concentrations
EC50 (LGC-50; Xenopus oocytes, TEVC, current normalized to Imax, Hill equation with variable slope, read-out: EC50, agonist-evoked dose response, LGC-50): 940 nM
Channel gating in ligand screen, LGC-50 (LGC-50; [1]): gated
EC50 (LGC-50:MOD-1(363-397)): 980 nM
